Structures can show the parent of a compound that is named as a salt. Where two headings read alike, the source gives them in different places.
Columns and labels:
[1] = cited from earlier work
[2] = cited from earlier work; remark: listed apart in the source
[3] = after peripheral administration; cited from earlier work
[4] = target: central cholinergic receptors; assay: 3H-oxotremorine M binding, rat brain homogenates; details: rat brain homogenate, pH 7.4, 40 min at 30 °C; read-out: Binding IC50, 3H-Oxo-M
Method: Briefly, rat brains were homogenized in 100 vol (w/v) 10 mM Na,K-phosphate buffer (pH 7.4) and aliquots incubated with ^3 H-oxotremorine M (84.9 Ci/mmol, NEN) alone or in the presence of test compound in a total volume of 1.5 ml for 40 min. at 30° C. The reaction was stopped by adding 5 ml ice-cold buffer and filtered through Whatman GF/B filters soaked previously in 0.1% polyethylenimin (Sigma) for minimum 30 min. The filters were washed once with the same volume of buffer, transferred to scintillation vials and extracted in scintillation fluid (Pico-fluor 15, Packard) for at least two hours before counted in a liquid scintillation spectrometer (Beckman LS 1800). Non-specific binding was estimated at 10 μM atropine and all estimations made in triplicate. At least two displacement curves were made for each compound tested.

[5] = target: T1, central muscarinic M-1 receptors (Rattus norvegicus, UniProt P08482); assay: biochemical; details: rat brain homogenate, 1.0 nM 3H-pirenzepine, 60 min at 25 °C; read-out: Binding IC50, 3H-Pirenzepine
T1 sequence (P08482 1-460): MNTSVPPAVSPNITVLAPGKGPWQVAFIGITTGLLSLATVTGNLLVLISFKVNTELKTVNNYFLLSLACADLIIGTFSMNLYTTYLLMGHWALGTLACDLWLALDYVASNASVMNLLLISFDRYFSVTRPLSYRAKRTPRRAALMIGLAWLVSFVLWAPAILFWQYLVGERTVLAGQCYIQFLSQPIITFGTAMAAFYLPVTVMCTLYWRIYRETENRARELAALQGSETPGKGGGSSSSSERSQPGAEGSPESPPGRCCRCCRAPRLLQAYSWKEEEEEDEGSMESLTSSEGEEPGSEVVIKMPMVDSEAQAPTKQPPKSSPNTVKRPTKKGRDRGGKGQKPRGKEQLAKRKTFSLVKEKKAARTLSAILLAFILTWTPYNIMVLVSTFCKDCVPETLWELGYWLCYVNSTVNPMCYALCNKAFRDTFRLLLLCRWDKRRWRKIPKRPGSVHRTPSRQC
Method: ^3 H-pirenzepine binding was performed essentially as described by Watson et al., 1983, the conditions being very much the same as for ^3 H-oxotremorine binding, except that aliquots were incubated with 1.0 nM ^3 H-pirenzepine for 60 min. at 25° C. and that the reaction was stopped by direct filtration followed by 3 washes with 4 ml buffer.

Structure (SMILES): COC(=O)C1=CCCN(C)C1 [Arecoline, methyl 1-methyl-1,2,5,6-tetrahydropyridine-3-carboxylate]
- penetration of the blood-brain barrier ([1]; after peripheral administration): capable of penetrating the BBB after peripheral administration
- hydrolysis of the ester group in vivo [2]: very rapidly hydrolyzed in vivo
- central effects [3]: very weak and frequently negligible central effects
- IC50 [4]: 1.9 nM

Structure (SMILES): CC(=O)OCC[N+](C)(C)C [AcCh, acetylcholine]
- penetration of the blood-brain barrier ([1]; in vivo): do not penetrate the blood-brain barrier (BBB) easily

Structure (SMILES): CCOc1noc2c1CNCCC2 [Example 4, 3-Ethoxy-5,6,7,8-tetrahydro-4H-isoxazolo[4,5-c]azepine Hydrochloride]
- IC50 [5]: 11 nM
- IC50 [4]: 0.49 nM

Structure (SMILES): C#CCOc1noc2c1CNCCC2 [Example 9, 3-(2-Propynyloxy)-5,6,7,8-tetrahydro-4H-isoxazolo [4,5-c]azepine Hydrochloride]
- IC50 [5]: 16 nM
- IC50 [4]: 0.34 nM

Structure (SMILES): C#CCOc1noc2c1CNCCC2C (centres unmarked) [Example 14, 8-Methyl-3-(2-propynyloxy)-5,6,7,8-tetrahydro-4H-isoxazolo 4,5-c azepine, Fumarate]
- IC50 [5]: 16 nM
- IC50 [4]: 0.93 nM

Structure (SMILES): COc1noc2c1CNCCC2 [Example 5, 3-Methoxy-5,6,7,8-tetrahydro-4H-isoxazolo[4,5-c]azepine Hydrochloride]
- IC50 [5]: 248 nM
- IC50 [4]: 2.8 nM

Structure (SMILES): COc1noc2c1CNCC2 [O-Methyl-THPO, reference compound]
- IC50 [5]: 8600 nM
- IC50 [4]: 62 nM

Structure (SMILES): CC(C)Oc1noc2c1CNCCC2 [Example 6, 3-Isopropoxy-5,6,7,8-tetrahydro-4H-isoxazolo[4,5-c]azepine Hydrochloride]
- IC50 [5]: 5 nM
- IC50 [4]: 8.3 nM

— patent publication US4960769A, “5,6,7,8-tetrahydro-4H-isoxazolo[4,5-c]-azepine derivatives” (H. Lundbeck A/S, priority 1987, dated 1990)
